# Data from patent publication US12209081B2 (Katholieke Universiteit Leuven, priority 2020, dated 2025).
# Molecular target: mouse TRPM3α2 (mTRPM3) ion channel (Mus musculus (Mouse), UniProt J9SQF3)
# Assay: TRPM3 ion channel driven Ca2+ uptake, Fluo-4 AM assay, mTRPM3alpha2 overexpressing flip-in HEK293 cells stimulated with pregnenolone sulfate
# Assay type: cell-based
# Method in brief: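 Flip-in HEK293 cells loaded with Fluo-4 AM were added to plates holding compound plus 50 μM pregnenolone sulfate in Ca2+-containing Krebs buffer. Fluorescence (ex 485/em 535 nm) read directly after cell addition; % inhibition relative to PS-stimulated vehicle and positive-control inhibitor.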
# [1] = PS (50 μM) stimulated, cpd 001-199
# [2] = PS (50 μM) stimulated, cpds. 667-751
# [3] = PS (50 μM) stimulated, cpds. 400-499
# [4] = PS (50 μM) stimulated, cpds. 500-599
# [5] = PS (50 μM) stimulated, cpds. 608-666
# mouse TRPM3α2 (mTRPM3) ion channel, sequence (J9SQF3 other isoform, or with tags, fused parts or gaps): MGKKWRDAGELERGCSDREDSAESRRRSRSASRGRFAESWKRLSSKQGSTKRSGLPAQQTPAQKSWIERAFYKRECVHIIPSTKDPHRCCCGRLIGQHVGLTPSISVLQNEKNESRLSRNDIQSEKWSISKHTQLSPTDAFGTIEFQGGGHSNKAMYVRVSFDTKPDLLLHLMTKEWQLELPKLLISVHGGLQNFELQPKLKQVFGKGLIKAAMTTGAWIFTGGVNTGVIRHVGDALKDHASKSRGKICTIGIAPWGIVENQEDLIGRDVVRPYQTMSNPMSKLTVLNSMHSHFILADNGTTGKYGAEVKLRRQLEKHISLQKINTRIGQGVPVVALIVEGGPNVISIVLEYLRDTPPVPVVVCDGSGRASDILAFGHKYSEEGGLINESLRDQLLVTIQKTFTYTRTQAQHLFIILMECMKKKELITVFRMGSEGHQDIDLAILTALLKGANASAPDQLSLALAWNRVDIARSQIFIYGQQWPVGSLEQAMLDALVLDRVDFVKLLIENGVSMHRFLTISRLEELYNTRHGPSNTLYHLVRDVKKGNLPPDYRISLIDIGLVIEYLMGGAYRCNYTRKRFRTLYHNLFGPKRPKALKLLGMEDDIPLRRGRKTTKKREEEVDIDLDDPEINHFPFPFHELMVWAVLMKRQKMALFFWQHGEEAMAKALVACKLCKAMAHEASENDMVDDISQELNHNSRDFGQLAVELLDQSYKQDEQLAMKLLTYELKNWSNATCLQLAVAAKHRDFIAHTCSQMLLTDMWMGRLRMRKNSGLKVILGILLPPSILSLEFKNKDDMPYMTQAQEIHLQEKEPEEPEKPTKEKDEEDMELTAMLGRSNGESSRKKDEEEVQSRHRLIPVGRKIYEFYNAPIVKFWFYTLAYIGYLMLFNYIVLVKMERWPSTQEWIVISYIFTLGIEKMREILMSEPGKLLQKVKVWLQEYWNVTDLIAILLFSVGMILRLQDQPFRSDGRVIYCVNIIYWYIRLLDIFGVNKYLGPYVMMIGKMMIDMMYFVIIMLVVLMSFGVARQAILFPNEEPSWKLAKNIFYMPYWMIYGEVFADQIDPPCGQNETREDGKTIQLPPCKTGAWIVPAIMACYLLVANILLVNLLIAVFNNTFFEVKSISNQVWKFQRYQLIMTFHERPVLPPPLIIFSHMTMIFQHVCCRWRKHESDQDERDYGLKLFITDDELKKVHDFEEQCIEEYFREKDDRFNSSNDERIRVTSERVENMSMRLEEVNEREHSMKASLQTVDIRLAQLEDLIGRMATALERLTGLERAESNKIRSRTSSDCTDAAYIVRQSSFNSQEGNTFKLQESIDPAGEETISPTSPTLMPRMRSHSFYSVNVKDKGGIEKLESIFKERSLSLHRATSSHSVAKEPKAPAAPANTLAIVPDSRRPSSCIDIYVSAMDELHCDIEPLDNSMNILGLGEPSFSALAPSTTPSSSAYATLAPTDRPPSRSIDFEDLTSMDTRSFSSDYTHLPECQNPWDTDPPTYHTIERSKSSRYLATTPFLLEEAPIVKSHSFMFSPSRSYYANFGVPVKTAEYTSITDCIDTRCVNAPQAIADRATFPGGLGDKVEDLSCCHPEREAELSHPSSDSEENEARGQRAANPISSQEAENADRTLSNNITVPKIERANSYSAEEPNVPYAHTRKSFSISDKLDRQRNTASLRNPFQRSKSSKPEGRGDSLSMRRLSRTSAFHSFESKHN
compound,measurement,setting,value
"Cc1oc2ccc(OCc3cccnc3N)cc2c1C(=O)NC1(CO)CCOCC1 [compound 346, 5-((2-aminopyridin-3-yl)methoxy)-N-(4-(hydroxymethyl)tetrahydro-2H-pyran-4-yl)-2-methylbenzofuran-3-carboxamide]",IC50,"PS 50 μM, cpds 300-399",< 1 µM
"Cc1oc2ccc(OCc3cccnc3C(F)(F)F)cc2c1C(=O)NC1CN(CC(F)(F)F)CC1(F)F (single isomer, unassigned) [157-En 1, N-(4,4-difluoro-1-(2,2,2-trifluoroethyl)pyrrolidin-3-yl)-2-methyl-5-((2-(trifluoromethyl)pyridin-3-yl)methoxy)benzofuran-3-carboxamide]",IC50,[1],< 1 µM
"Cc1oc2ccc(OCc3ccnn3CC3CC3)cc2c1C(=O)N[C@@H](CO)C(N)=O [compound 690, (S)-N-(1-amino-3-hydroxy-1-oxopropan-2-yl)-5-((1-(cyclopropylmethyl)-1H-pyrazol-5-yl)methoxy)-2-methylbenzofuran-3-carboxamide]",IC50,[2],< 1 µM
"CNC(=O)[C@@H](CO)NC(=O)c1c(C)oc2ccc(OCc3scnc3C)cc12 [compound 276, (R)-N-(3-hydroxy-1-(methylamino)-1-oxopropan-2-yl)-2-methyl-5-((4-methylthiazol-5-yl)methoxy)benzofuran-3-carboxamide]",IC50,"PS 50 μM, cpds 200-299",< 1 µM
"Cc1ncsc1COc1ccc2oc(C)c(C(=O)NC3COCCNC3=O)c2c1 (single isomer, unassigned) [cpd 317-En 1]",IC50,"PS 50 μM, cpds 300-399",< 1 µM
"CNC(=O)[C@H](CO)NC(=O)c1c(C)oc2ccc(OCc3scnc3C)cc12 [compound 306, (S)-N-(3-hydroxy-1-(methylamino)-1-oxopropan-2-yl)-2-methyl-5-((4-methylthiazol-5-yl)methoxy)benzofuran-3-carboxamide]",IC50,"PS 50 μM, cpds 300-399",< 1 µM
"Cc1ncc(COc2ccc3oc(C)c(C(=O)N[C@H](CO)CS(C)(=O)=O)c3c2)s1 [compound 274, (R)-N-(1-hydroxy-3-(methylsulfonyl)propan-2-yl)-2-methyl-5-((2-methylthiazol-5-yl)methoxy)benzofuran-3-carboxamide]",IC50,"PS 50 μM, cpds 200-299",< 1 µM
"COc1ncccc1COc1ccc2oc(C)c(C(=O)NC3(CO)CCOCC3)c2c1F [compound 330, 4-fluoro-N-(4-(hydroxymethyl)tetrahydro-2H-pyran-4-yl)-5-((2-methoxypyridin-3-yl)methoxy)-2-methylbenzofuran-3-carboxamide]",IC50,"PS 50 μM, cpds 300-399",< 1 µM
"Cc1oc2ccc(OCc3cccnc3C(F)(F)F)cc2c1C(=O)N[C@@H](CO)C(N)=O [compound 280, (S)-N-(1-amino-3-hydroxy-1-oxopropan-2-yl)-2-methyl-5-((2-(trifluoromethyl)pyridin-3-yl)methoxy)benzofuran-3-carboxamide]",IC50,"PS 50 μM, cpds 200-299",< 1 µM
"Cc1oc2ccc(OCc3ncccc3C(F)F)cc2c1C(=O)N[C@@H](CO)C(N)=O [compound 301, (S)-N-(1-amino-3-hydroxy-1-oxopropan-2-yl)-5-((3-(difluoromethyl)pyridin-2-yl)methoxy)-2-methylbenzofuran-3-carboxamide]",IC50,"PS 50 μM, cpds 300-399",< 1 µM
"Cc1ncsc1COc1cc(F)c2oc(C)c(C(=O)NC3(CO)COC3)c2c1 [compound 367, 7-fluoro-N-(3-(hydroxymethyl)oxetan-3-yl)-2-methyl-5-((4-methylthiazol-5-yl)methoxy)benzofuran-3-carboxamide]",IC50,"PS 50 μM, cpds 300-399",< 1 µM
"Cc1oc2ccc(OCc3ccccn3)cc2c1C(=O)N[C@@H](C)CO [compound 492, (S)-N-(1-hydroxypropan-2-yl)-2-methyl-5-(pyridin-2-ylmethoxy)benzofuran-3-carboxamide]",IC50,[3],< 1 µM
"Cc1ncsc1COc1cc(F)c2oc(C)c(C(=O)NC3CCNCC3(F)F)c2c1 (single isomer, unassigned) [cpd 573-En 1]",IC50,[4],< 1 µM
"Cc1ncsc1COc1ccc2oc(C)c(C(=O)NCC(C)(C)F)c2c1 [compound 505, N-(2-fluoro-2-methylpropyl)-2-methyl-5-((4-methylthiazol-5-yl)methoxy)benzofuran-3-carboxamide]",IC50,[4],< 1 µM
"Cc1oc2ccc(OCc3cccnc3C(F)(F)F)cc2c1C(=O)Nc1ccn(C)n1 [compound 146, 2-methyl-N-(1-methyl-1H-pyrazol-3-yl)-5-((2-(trifluoromethyl)pyridin-3-yl)methoxy)benzofuran-3-carboxamide]",IC50,[1],< 1 µM
"Cc1oc2ccc(OCc3nccn3C)cc2c1C(=O)NC1CCNCC1(F)F (single isomer, unassigned) [cpd 205-En 1]",IC50,"PS 50 μM, cpds 200-299",1 to 20 µM
"Cc1noc(C)c1COc1ccc2oc(C)c(C(=O)O)c2c1 [compound 016, 5-((3,5-dimethylisoxazol-4-yl)methoxy)-2-methylbenzofuran-3-carboxylic acid]",IC50,[1],> 20 µM
"Cc1oc2ccc(OCc3cccnc3C(F)(F)F)cc2c1C(=O)NC1(CO)CC1 [compound 200, N-(1-(hydroxymethyl)cyclopropyl)-2-methyl-5-((2-(trifluoromethyl)pyridin-3-yl)methoxy) -benzofuran-3-carboxamide]",IC50,"PS 50 μM, cpds 200-299",< 1 µM
"Cc1ncsc1COc1ccc2oc(C)c(C(=O)NCc3cc[nH]n3)c2c1 [compound 374, N-((1H-pyrazol-3-yl)methyl)-2-methyl-5-((4-methylthiazol-5-yl)methoxy)benzofuran-3-carboxamide]",IC50,"PS 50 μM, cpds 300-399",< 1 µM
"Cc1oc2ccc(OCc3ccc(F)cn3)cc2c1C(=O)NC1CCNCC1(F)F (single isomer, unassigned) [cpd 568-En 2]",IC50,[4],1 to 20 µM
"Cc1ncc(COc2ccc3oc(C)c(C(=O)NC4(COC(F)F)CC4)c3c2)s1 [compound 399, N-(1-((difluoromethoxy)methyl)cyclopropyl)-2-methyl-5-((2-methylthiazol-5-yl)methoxy)benzofuran-3-carboxamide]",IC50,"PS 50 μM, cpds 300-399",< 1 µM
"Cc1ncc(COc2ccc3oc(C)c(C(=O)NC4CCOCC4(F)F)c3c2)s1 (single isomer, unassigned) [cpd 724-En 1]",IC50,[2],< 1 µM
"Cc1oc2ccc(OCc3ncsc3C)cc2c1C(=O)N[C@@H](CO)C(N)=O [compound 290, (S)-N-(1-amino-3-hydroxy-1-oxopropan-2-yl)-2-methyl-5-((5-methylthiazol-4-yl)methoxy)benzofuran-3-carboxamide]",IC50,"PS 50 μM, cpds 200-299",< 1 µM
"CNC(=O)C1(NC(=O)c2c(C)oc3ccc(OCc4cnc(C)s4)cc23)CCC1 [compound 318, 2-methyl-N-(1-(methylcarbamoyl)cyclobutyl)-5-((2-methylthiazol-5-yl)methoxy)benzofuran-3-carboxamide]",IC50,"PS 50 μM, cpds 300-399",< 1 µM
"Cc1ncccc1COc1ccc2oc(C)c(C(=O)NC3CCNCC3(F)F)c2c1 (single isomer, unassigned) [cpd 547-En 1]",IC50,[4],< 1 µM
"Cc1ncc(COc2ccc3oc(C4CC4)c(C(=O)N[C@@H](CO)C(N)=O)c3c2)s1 [compound 749, (S)-N-(1-Amino-3-hydroxy-1-oxopropan-2-yl)-2-cyclopropyl-5-((2-methylthiazol-5-yl)methoxy)benzofuran-3-carboxamide]",IC50,[2],< 1 µM
"Cc1oc2ccc(OCc3cccnc3O)cc2c1C(=O)N[C@H](C)CO [compound 495, (R)-N-(1-hydroxypropan-2-yl)-5-((2-hydroxypyridin-3-yl)methoxy)-2-methylbenzofuran-3-carboxamide]",IC50,[3],< 1 µM
"Cc1oc2ccc(OCc3nccn3C)cc2c1C(=O)NC1COCC1(F)F (single isomer, unassigned) [cpd 641-En 1]",IC50,[5],1 to 20 µM
"Cc1ncsc1COc1ccc2oc(C)c(C(=O)N[C@@H](C)C(N)=O)c2c1 [compound 279, (S)-N-(1-amino-1-oxopropan-2-yl)-2-methyl-5-((4-methylthiazol-5-yl)methoxy)benzofuran-3-carboxamide]",IC50,"PS 50 μM, cpds 200-299",< 1 µM
"Cc1oc2ccc(OCC3CCNC3)cc2c1C(=O)O (stereo not drawn) [compound 003, 2-methyl-5-(pyrrolidin-3-ylmethoxy)benzofuran-3-carboxylic acid]",IC50,[1],> 20 µM
"Cc1oc2ccc(OCc3cccnn3)cc2c1C(=O)N[C@@H](CO)C(N)=O [compound 293, (S)-N-(1-amino-3-hydroxy-1-oxopropan-2-yl)-2-methyl-5-(pyridazin-3-ylmethoxy)benzofuran-3-carboxamide]",IC50,"PS 50 μM, cpds 200-299",< 1 µM
"Cc1oc2ccc(OCc3cccnc3N3CCC3)cc2c1C(=O)NC1CCNCC1(F)F (single isomer, unassigned) [cpd 336-En 1]",IC50,"PS 50 μM, cpds 300-399",< 1 µM
"Cc1oc2ccc(OCc3nccs3)cc2c1C(=O)NC1CCNCC1(F)F (single isomer, unassigned) [cpd 560-En 1]",IC50,[4],< 1 µM
"Cc1oc2ccc(OCc3cccnc3O)cc2c1C(=O)N[C@@H](C)CO [compound 494, (S)-N-(1-hydroxypropan-2-yl)-5-((2-hydroxypyridin-3-yl)methoxy)-2-methylbenzofuran-3-carboxamide]",IC50,[3],< 1 µM
"Cc1nc(COc2ccc3oc(C)c(C(=O)N[C@@H](CO)C(N)=O)c3c2)cs1 [compound 285, (S)-N-(1-amino-3-hydroxy-1-oxopropan-2-yl)-2-methyl-5-((2-methylthiazol-4-yl)methoxy)benzofuran-3-carboxamide]",IC50,"PS 50 μM, cpds 200-299",< 1 µM
"Cc1ncc(COc2ccc3oc(C)c(C(=O)NC4CCNCC4(F)F)c3c2)s1 (single isomer, unassigned) [cpd 549-En 1]",IC50,[4],< 1 µM
"Cc1oc2ccc(OCc3cccnc3C(F)(F)F)cc2c1C(=O)NC(C)CO (single isomer, unassigned) [cpd 489-En 2]",IC50,[3],< 1 µM
"Cc1ncsc1COc1ccc2oc(C)c(C(=O)NC3(C(N)=O)CCOCC3)c2c1 [compound 650, N-(4-carbamoyltetrahydro-2H-pyran-4-yl)-2-methyl-5-((4-methylthiazol-5-yl)methoxy)benzofuran-3-carboxamide]",IC50,[5],< 1 µM
"Cc1oc2ccc(OCc3cncs3)cc2c1C(=O)N[C@H]1CCNC1 [compound 024, (S)-2-methyl-N-(pyrrolidin-3-yl)-5-(thiazol-5-ylmethoxy)benzofuran-3-carboxamide]",IC50,[1],< 1 µM
